Tests used:
EfaUPPS (K47A) = target: T1, EfaUPPS (K47A) (Enterococcus faecalis, UniProt Q831K9, K53A); experiment: UPPS inhibition assay, EfaUPPS K47A mutant; format: biochemical; details: K47A mutant compared with wild-type
T1 construct: His tag; made in house; host or cells: E. coli BL21(DE3)
Method: (§1) The EfaUPPS site-directed mutagenesis was generated using QuikChange site-directed mutagenesis kit (Agilent) according to the manufacturer’s instructions. The purification of site-directed mutation was using a similar strategy as described above.
(§2) The UPPS inhibition assay was carried out by measuring the fluorescence of the reaction mixture in a black 96-well microtiter plate (Corning, United States). […] After the indicated incubation period, the reaction was terminated by the addition of 10 μl of 0.5 M EDTA solution. Transferred 50 μl of the reaction mixture into a new 96-well microtiter plate, and quenched with an equal volume of Master Reaction Mix (Pyrophosphate Assay Kit, Sigma-Aldrich, USA) for 30 min. The UPPS inhibitory activity was performed by calculating the fluorescence percentage through determining the fluorescence absorbance of reaction mixture at 316 and 456 nm. Data of UPPS inhibitory activities were plotted versus compound concentrations on a semi-log scale using GraphPad Prism7. All the results were the means of at least three biological replicates.

EfaUPPS (R42A) = target: T2, EfaUPPS (R42A) (Enterococcus faecalis, UniProt Q831K9, R48A); experiment: Microscale thermophoresis binding assay, EfaUPPS R42A
T2 construct: His tag; made in house; host or cells: E. coli BL21(DE3)
Method: (§3) To characterize the binding affinity between EfaUPPS and GA or NGA, the MST binding assay was performed as previously described ([Lin et al., 2020]). In brief, His-tagged EfaUPPS and site-directed mutated EfaUPPS were labeled with the NT- 647-NHS dye using the Monolith NTTM Protein Labeling Kit RED-NHS (NanoTemper Technologies). Two-fold serially diluted GA or NGA was mixed with 10 nM of labeled EfaUPPS or its derivatives in 10 μl of binding buffer (137 mM NaCl, 2.7 mM KCl, 10 mM Na2HPO4, 1.8 mM KH2PO4, and 0.05% Tween-20, pH 7.8), incubated for 15 min, at room temperature. And then, loaded the mixtures into NT.115 premium coated capillaries (NanoTemper Technologies). MST trace signals were collected from the IR laser on to off for about 20 s, under the 5% LED power and high MST power mode. The change of molecular thermophoresis was monitored by standardized fluorescence value Fnorm, and the binding curve was plotted according to the values of Fnorm. The formed complex affinity was analyzed by MO Affinity Analysis software version 2.3. Apparent dissociation constants (Kd) were calculated using nonlinear fitting assuming one specific binding site with the GraphPad Prism 7 software with the following formula: Y = B^∗Max X/KD + X.
(§4) (^∗ where BMax is the maximum theoretical specific binding; here BMax = 1).

EfaUPPS (I43A) [1] = target: T3, EfaUPPS (I43A) (Enterococcus faecalis, UniProt Q831K9, I49A); experiment: Microscale thermophoresis binding assay, EfaUPPS I43A
T3 construct: His tag; made in house; host or cells: E. coli BL21(DE3)
Method: as §3, §4

E. faecalis infection = experiment: E. faecalis infected mouse model; format: in vivo, C57BL/6 J mice; details: oral dose (40 μM), 19 days
Method: All animal studies had been reviewed and approved by the Animal Ethical and Welfare Committee of Nanjing University of Chinese Medicine. 8-week-old male C57BL/6 J mice were housed in groups of four mice per cage in a 12/12-h day light cycle with free access to food and water under conditions of controlled humidity (50 ± 5%) and temperature (22 ± 2°C). Mice were adaptively raised for a week before experiments. To explore the effects of GA and NGA on E. faecalis, the mice were randomly divided into four groups including control, E. faecalis, E. faecalis + GA and E. faecalis + NGA. Mice received an oral dose (40 μM) of GA or NGA from 30 min after E. faecalis (1 × 10^10 CFU) treatment for 19 days to sacrifice. The body weight of the mice was monitored daily. Afterwards mice spleens were collected and spleen weight was measured upon being sacrificed.
Spleen tissue sections of mice were fixed in 4% paraformaldehyde, dehydrated in alcohol, embedded in paraffin and then sliced into thin 5 μm sections. The tissues were then stained with hematoxylin & eosin (H&E). The tissue images were observed under an inverted microscope (Vectra 3.0, PerkinElmer, United States).
Retro-orbital blood was collected from the mice in asepsis tubes before dissection. The blood was centrifuged at 3500 g for 20 min to extract serum, which was stored at −20°C awaiting subsequent analyses. TNF-α-levels in serum was measured by ELISA according to the instructions of the manufacturer (eBioscience, United States).
Total RNA was extracted from the spleen of mice, and then the cDNA was synthesized with HiScript® II Q RT SuperMix for qPCR (Vazyme, China). qPCR was performed using the LightCycler®96 (Roche, Swiss). The qPCR primers of TNF-α (Forward: 5’-[…]-3′ and Reverse: 5’-[…]-3′) were designed and synthesized by GENERAY Biotechnology (Shanghai, China). GAPDH was used as the reference gene.

EfaUPPS (I43A) [2] = target: T3, EfaUPPS (I43A); experiment: UPPS inhibition assay, EfaUPPS I43A mutant; format: biochemical
Method: as §1, §2

E. faecalis ATCC29212 = experiment: Bacterial activity (bactericidal) test; format: cell-based, Enterococcus faecalis; details: 2 μg/mL
Method: The E. faecalis ATCC29212 were pre-cultured in LB broth at 200 rpm, 37°C overnight, and then the cultures were diluted to 7 × 10^5 CFU/mL by LB broth. A 96-well microtiter plate was inoculated with 200 μl the diluted cultures per well containing 0.1 mg/mL Resazurin with or without 2 μg/mL GA or NGA, followed by incubation at 37°C for 24 h, and then imaged. Three biological replicates were performed for each sample. To visualized the potential bactericidal properties for GA and NGA, the 24 h of GA/NGA-pretreated E. faecalis were coated on the plate to continue cultured overnight. The bactericidal properties of the compounds were determined by counting the bacterial CFUs.

T1 sequence (Q831K9 whole entry K53A): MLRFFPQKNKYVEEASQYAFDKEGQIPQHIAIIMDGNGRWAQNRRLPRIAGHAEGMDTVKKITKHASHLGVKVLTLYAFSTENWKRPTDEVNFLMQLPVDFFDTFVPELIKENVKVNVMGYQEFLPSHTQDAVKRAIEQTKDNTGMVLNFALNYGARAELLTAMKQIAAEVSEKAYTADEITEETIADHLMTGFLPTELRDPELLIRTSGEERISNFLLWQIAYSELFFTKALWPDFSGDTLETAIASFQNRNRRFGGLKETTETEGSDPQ
T2 sequence (Q831K9 whole entry R48A): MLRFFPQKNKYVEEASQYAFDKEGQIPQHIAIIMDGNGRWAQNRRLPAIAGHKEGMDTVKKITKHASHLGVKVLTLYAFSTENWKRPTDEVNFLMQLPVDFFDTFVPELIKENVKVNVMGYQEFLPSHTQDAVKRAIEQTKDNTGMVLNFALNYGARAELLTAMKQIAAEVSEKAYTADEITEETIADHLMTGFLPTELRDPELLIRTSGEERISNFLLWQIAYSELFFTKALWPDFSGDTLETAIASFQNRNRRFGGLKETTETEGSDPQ
T3 sequence (Q831K9 whole entry I49A): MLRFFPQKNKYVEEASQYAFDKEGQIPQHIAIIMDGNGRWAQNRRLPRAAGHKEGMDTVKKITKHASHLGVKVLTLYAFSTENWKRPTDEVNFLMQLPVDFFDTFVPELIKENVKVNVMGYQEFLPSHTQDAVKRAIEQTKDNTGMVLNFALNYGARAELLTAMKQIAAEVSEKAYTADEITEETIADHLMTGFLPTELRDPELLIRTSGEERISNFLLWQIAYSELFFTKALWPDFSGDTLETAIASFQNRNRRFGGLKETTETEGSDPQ

Row | Compound | IC50 values of K47A mutant (in words) (EfaUPPS (K47A)) | effect of mutation on inhibitory effect of compound on EfaUPPS enzyme activity (EfaUPPS (K47A)) | Kd (EfaUPPS (R42A)) | Kd (EfaUPPS (I43A) [1]) | body weight of E. faecalis infection mice (E. faecalis infection) | spleen inflammation (H&E spleen slides) (E. faecalis infection) | splenomegaly (spleen weight) (E. faecalis infection) | IC50 (EfaUPPS (I43A) [2]) | effect of mutation on inhibitory effect of compound on EfaUPPS enzyme activity (EfaUPPS (I43A) [2]; I43A mutant compared with wild-type) | IC50 fold higher than that of the wild-type (EfaUPPS (I43A) [2]; I43A mutant vs wild-type (~3 μM)) | bactericidal properties (CFUs after 24 h pretreatment) (E. faecalis ATCC29212) | Kd fold higher than that of the wild-type (EfaUPPS (R42A); R42A vs wild-type) | TNF-α mRNA in spleen (qPCR) (E. faecalis infection) | TNF-α-levels in serum (ELISA) (E. faecalis infection; vs E. faecalis group)
1 | CC(C)=CCC[C@]1(C)C=Cc2c(O)c3c(c(CC=C(C)C)c2O1)O[C@]12C(=C[C@@H]4C[C@H]1C(C)(C)O[C@@]2(C/C=C(/C)C(=O)O)C4=O)C3=O [GA, gambogic acid] | increased | no obvious difference | 40.5 ± 17.2 µM | > 50000 µM | no observable effect | reduced signs of inflammation | significantly relieved splenomegaly | ~30 µM | significantly decreased | about 10 fold | potential bactericidal effects | – | – | –
2 | CC(C)=CCC[C@]1(C)CC(O)c2c(O)c3c(c(CC=C(C)C)c2O1)O[C@]12C(=C[C@@H]4C[C@H]1C(C)(C)O[C@@]2(C/C=C(/C)C(=O)O)C4=O)C3=O (some centres unmarked) [NGA, neogambogic acid] | – | significantly reduced | 62.9 ± 25.4 µM | – | no observable effect | reduced signs of inflammation | significantly relieved splenomegaly | – | – | – | potential bactericidal effects | about 10 fold | significant downregulation | significantly reduced

Reference: paper PMC9791066, “Investigations into the antibacterial effects and potential mechanism of gambogic acid and neogambogic acid” (Frontiers in Microbiology, 2022)
